Literature values, collected in US7794750B2, “Controlled-release formulations, method of manufacture, and use thereof” (Mutual Pharmaceutical Company, Inc., priority 2008, dated 2010).
Structures can show the parent of a compound that is named as a salt.

Details: 25° C., pH of about 7

- aqueous solubility: 3290 µg/mL
Compound: OCCOCCN1CCN(C2=Nc3ccccc3Sc3ccccc32)CC1 [Quetiapine fumarate, quetiapine fumarate]
